# Assay results as given in paper PMC2997783, “Genetic and Chemical Evaluation of Trypanosoma brucei Oleate Desaturase as a Candidate Drug Target” (PLoS ONE, 2010).
# Tests used:
# oleate desaturase (OD) = target: T1, oleate desaturase (OD) (Trypanosoma brucei, UniProt Q6UCJ6); assay: whole-cell […]-oleate desaturation, argentation-TLC and scintillation counting; type: cell-based; settings: intact bloodstream-form cells; 50 µM 13-TS, 30 min preincubation, 60 min with [14C]-oleate; may act as a metabolite of the added acid
# T1 construct: native full-length enzyme in intact T. brucei cells
# T1 sequence (Q6UCJ6 1-408): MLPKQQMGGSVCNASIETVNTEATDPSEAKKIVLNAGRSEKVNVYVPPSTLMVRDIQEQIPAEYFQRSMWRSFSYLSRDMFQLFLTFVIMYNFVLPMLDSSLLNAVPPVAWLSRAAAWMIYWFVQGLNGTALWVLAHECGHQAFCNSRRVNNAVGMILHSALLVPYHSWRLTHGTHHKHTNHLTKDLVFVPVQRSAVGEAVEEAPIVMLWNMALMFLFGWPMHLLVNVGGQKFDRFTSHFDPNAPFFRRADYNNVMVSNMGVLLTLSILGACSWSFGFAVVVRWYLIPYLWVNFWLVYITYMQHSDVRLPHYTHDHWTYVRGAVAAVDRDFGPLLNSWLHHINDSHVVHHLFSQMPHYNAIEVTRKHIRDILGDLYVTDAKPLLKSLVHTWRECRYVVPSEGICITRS
# [1] = target: T2, stearoyl-CoA desaturase (SCD) (Trypanosoma brucei, UniProt Q57YK1); assay: whole-cell […]-stearate desaturation, argentation-TLC and scintillation counting; type: cell-based; settings: intact bloodstream-form cells; 50 µM 13-TS, 30 min preincubation, 60 min with [14C]-stearate; may act as a metabolite of the added acid
# T2 construct: gene Tb08.11J15.870; native enzyme in intact bloodstream-form cells; carries a cytochrome b-like domain
# T2 sequence (Q57YK1 1-431): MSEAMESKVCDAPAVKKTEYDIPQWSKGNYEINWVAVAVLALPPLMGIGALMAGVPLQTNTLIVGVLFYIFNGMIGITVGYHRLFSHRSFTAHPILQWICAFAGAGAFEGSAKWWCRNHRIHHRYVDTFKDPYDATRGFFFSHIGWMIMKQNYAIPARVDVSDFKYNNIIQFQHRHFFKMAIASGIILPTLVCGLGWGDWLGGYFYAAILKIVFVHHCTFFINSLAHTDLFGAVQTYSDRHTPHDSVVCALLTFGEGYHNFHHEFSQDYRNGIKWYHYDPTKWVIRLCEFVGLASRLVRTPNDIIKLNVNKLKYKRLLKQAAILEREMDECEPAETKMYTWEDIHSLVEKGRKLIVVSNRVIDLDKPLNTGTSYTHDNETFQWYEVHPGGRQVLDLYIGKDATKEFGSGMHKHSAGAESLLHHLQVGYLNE
compound,measurement,setting,value
"CCCCCSCCCCCCCCCCCC(=O)O [13-TS, 13-thiastearic acid]",% conversion of oleate to linoleate with 50 μM inhibitor (control 20.4%),oleate desaturase (OD),7.7%
same,% conversion of stearate to oleate with 50 μM inhibitor (control 23.1%),[1],19%
